From ChEMBL document CHEMBL1140095, “Design, synthesis, and antibacterial activities of neomycin-lipid conjugates: polycationic lipids with potent gram-positive activity” (2008) come the findings set out here.

The subject of test [1] is Staphylococcus aureus. Description: Antibacterial activity against Staphylococcus aureus ATCC 29213 after 24 hrs by macrobroth dilution method. Format: functional. The note with it: ATCC 29213, 24 h. On the technique in general: Dilution methods test growth across graded concentrations, often in twofold steps.
Test [2] concerns Staphylococcus aureus. In words: Antibacterial activity against methicillin-resistant Staphylococcus aureus ATCC 33592 after 24 hrs by macrobroth dilution method. As to conditions: ATCC 33592, 24 h. In kind it is functional.
Test [3] concerns Staphylococcus epidermidis. In words: Antibacterial activity against Staphylococcus epidermidis ATCC 1490 after 24 hrs by macrobroth dilution method. In kind it is functional. The note with it: ATCC 1490, 24 h.
The test system of test [4] is Staphylococcus epidermidis. In words: Antibacterial activity against methicillin-resistant Staphylococcus epidermidis ATCC 14990 after 24 hrs by macrobroth dilution method. In kind it is functional. The note with it: ATCC 14990, 24 h.
The subject of test [5] is Streptococcus pneumoniae. Description: Antibacterial activity against […] Streptococcus pneumoniae ATCC 49619 after 24 hrs by macrobroth dilution method. Format: functional. The note with it: ATCC 49619, 24 h.
Test [6] has as its system Escherichia coli. In words: Antibacterial activity against Escherichia coli ATCC 25922 after 24 hrs by macrobroth dilution method. In kind it is functional. As to conditions: ATCC 25922, 24 h.
In test [7] the test system is Escherichia coli. Description: Antibacterial activity against gentamicin-resistant Escherichia coli ATCC 6174 after 24 hrs by macrobroth dilution method. In kind it is functional. The note with it: ATCC 6174, 24 h.
Test [8] has as its system Pseudomonas aeruginosa. In words: Antibacterial activity against Pseudomonas aeruginosa ATCC 27853 after 24 hrs by macrobroth dilution method. In kind it is functional. The note with it: ATCC 27853, 24 h.
Test [9] relates to Candida albicans. In words: Antibacterial activity against Candida albicans. In kind it is functional.
Test [10] relates to Staphylococcus aureus. In words: Antibacterial activity against methicillin-susceptible Staphylococcus aureus after 24 hrs by macrobroth dilution method. In kind it is functional.
Test [11] concerns Staphylococcus aureus. Description: Antibacterial activity against Staphylococcus aureus. In kind it is functional.
The subject of test [12] is Staphylococcus aureus. Description: Antibacterial activity against methicillin-resistant Staphylococcus aureus. Format: functional.
Test [13] concerns Escherichia coli. In words: Antibacterial activity against Escherichia coli. Format: functional.
Test [14] has as its system Streptococcus pneumoniae. Description: Antibacterial activity against Streptococcus pneumoniae ATCC 49619 after 24 hrs by macrobroth dilution method. The note with it: ATCC 49619, 24 h.

Each structure is given as a SMILES string. In brackets after ≈: the same amount, converted by molar mass.

On to `C[C@@H](CCC(=O)NC[C@H]1O[C@@H](O[C@@H]2[C@@H](O)[C@H](N)C[C@H](N)[C@H]2O[C@H]2O[C@H](CN)[C@@H](O)[C@H](O)[C@H]2N)[C@H](O)[C@@H]1O[C@H]1O[C@@H](CN)[C@@H](O)[C@H](O)[C@H]1N)[C@@H]1CC[C@H]2[C@@H]3[C@@H](O)C[C@H]4C[C@@H](O)CC[C@@]4(C)[C@H]3C[C@@H](O)[C@]21C` (stereo in doubt), for which the minimal inhibitory concentration (MIC) (usually the lowest concentration found to suppress growth) is 16 µg/mL (≈ 15.9 µM) in test [1]; 128 µg/mL (≈ 127 µM) in test [2]; 8 µg/mL (≈ 7.97 µM) in test [3]; 16 µg/mL (≈ 15.9 µM) in test [4]; over 256 µg/mL in [5]; 32 µg/mL (≈ 31.9 µM) in [6]. The MIC in [7] is 64 µg/mL (≈ 63.7 µM); in [8], over 256 µg/mL; in test [9], at least 512 µg/mL.

Regarding `CCCCCCCCCCCC(=O)O` [DODECANOATE], the MIC in [2] and in test [10] was 400 µg/mL (≈ 2000 µM) in each case.

For `NC[C@@H]1O[C@H](O[C@H]2[C@@H](O)[C@H](O[C@@H]3[C@@H](O)[C@H](N)C[C@H](N)[C@H]3O[C@H]3O[C@H](CN)[C@@H](O)[C@H](O)[C@H]3N)O[C@@H]2CO)[C@H](N)[C@@H](O)[C@@H]1O` [FRAMYCETIN], the MIC in [1] was 2 µg/mL (≈ 3.25 µM); in test [2] it was 256 µg/mL (≈ 416 µM); in [3] it was 1 µg/mL (≈ 1.63 µM); in [4] it was 0.5 µg/mL (≈ 0.813 µM); in test [5] it was 64 µg/mL (≈ 104 µM); in test [6], 8 µg/mL (≈ 13 µM). For the same compound, the MIC in [7] is 4 µg/mL (≈ 6.51 µM); in test [8], 512 µg/mL (≈ 833 µM); in [9], at least 512 µg/mL.

As to `CCCCCCCCCCCCCCCCCCCC(=O)NC[C@H]1O[C@@H](O[C@@H]2[C@@H](O)[C@H](N)C[C@H](N)[C@H]2O[C@H]2O[C@H](CN)[C@@H](O)[C@H](O)[C@H]2N)[C@H](O)[C@@H]1O[C@H]1O[C@@H](CN)[C@@H](O)[C@H](O)[C@H]1N`, the MIC in [1] turned out to be 8 µg/mL (≈ 8.81 µM); in test [2], 8 µg/mL (≈ 8.81 µM); in [3], 4 µg/mL (≈ 4.4 µM); in test [4] it was 4 µg/mL (≈ 4.4 µM); in test [5], 64 µg/mL (≈ 70.5 µM); in [6], 128 µg/mL (≈ 141 µM). Besides, the figures for the MIC in [7], in test [8] and in test [9] were 128 µg/mL (≈ 141 µM), 64 µg/mL (≈ 70.5 µM) and at least 512 µg/mL, respectively.

Turning to `CCCCCCCCCCCCC/C=C/[C@@H](O)[C@@H](N)CO` [SPHINGOSINE], the minimal inhibitory concentration (MIC) in test [9] was determined as 6 µg/mL (≈ 20 µM); in test [11] it was 2 µg/mL (≈ 6.68 µM); in [12], 4 µg/mL (≈ 13.4 µM); in test [13] it was 42 µg/mL (≈ 140 µM).

In the case of `CCCCCC(=O)NC[C@H]1O[C@@H](O[C@@H]2[C@@H](O)[C@H](N)C[C@H](N)[C@H]2O[C@H]2O[C@H](CN)[C@@H](O)[C@H](O)[C@H]2N)[C@H](O)[C@@H]1O[C@H]1O[C@@H](CN)[C@@H](O)[C@H](O)[C@H]1N`, the MIC in test [1] is 16 µg/mL (≈ 22.5 µM); in [2] it was over 512 µg/mL; in [3], 2 µg/mL (≈ 2.81 µM); in test [4] it was 32 µg/mL (≈ 45 µM); in test [6] it was 16 µg/mL (≈ 22.5 µM); in test [7], 16 µg/mL (≈ 22.5 µM). Also, the MIC in [8] is over 512 µg/mL; in [9], at least 512 µg/mL; in test [14] it was 64 µg/mL (≈ 89.9 µM).

As for `NC[C@@H]1O[C@H](O[C@H]2[C@@H](O)[C@H](O[C@@H]3[C@@H](O)[C@H](N)C[C@H](N)[C@H]3O[C@H]3O[C@H](CN)[C@@H](O)[C@H](O)[C@H]3N)O[C@@H]2CNC(=O)CCCc2ccc3ccc4cccc5ccc2c3c45)[C@H](N)[C@@H](O)[C@@H]1O`, the MIC in test [1] was 16 µg/mL (≈ 18.1 µM); in test [2], 256 µg/mL (≈ 290 µM); in test [3], 2 µg/mL (≈ 2.26 µM); in [4] it was 64 µg/mL (≈ 72.4 µM); in test [5], over 512 µg/mL; in [6], 32 µg/mL (≈ 36.2 µM). For the same compound, the minimum inhibitory concentration (MIC) was 64 µg/mL (≈ 72.4 µM) in test [7], 256 µg/mL (≈ 290 µM) in test [8] and at least 512 µg/mL in [9].

In the case of `CCCCCCCCCCCC(=O)NC[C@H]1O[C@@H](O[C@@H]2[C@@H](O)[C@H](N)C[C@H](N)[C@H]2O[C@H]2O[C@H](CN)[C@@H](O)[C@H](O)[C@H]2N)[C@H](O)[C@@H]1O[C@H]1O[C@@H](CN)[C@@H](O)[C@H](O)[C@H]1N`, the MIC in test [1] is 32 µg/mL (≈ 40.2 µM); in [2] it was over 512 µg/mL; in test [3], 4 µg/mL (≈ 5.03 µM); in [4] it was 8 µg/mL (≈ 10.1 µM); in [6], 64 µg/mL (≈ 80.4 µM); in test [7], 64 µg/mL (≈ 80.4 µM). In addition, the MIC in [8] is 256 µg/mL (≈ 322 µM); in test [9], at least 512 µg/mL; in [14] it was 128 µg/mL (≈ 161 µM).

In the case of `CCCCCCCCCCCCCCCC(=O)NC[C@H]1O[C@@H](O[C@@H]2[C@@H](O)[C@H](N)C[C@H](N)[C@H]2O[C@H]2O[C@H](CN)[C@@H](O)[C@H](O)[C@H]2N)[C@H](O)[C@@H]1O[C@H]1O[C@@H](CN)[C@@H](O)[C@H](O)[C@H]1N`, the minimal inhibitory concentration (MIC) in test [1] was 4 µg/mL (≈ 4.69 µM); in [2], 8 µg/mL (≈ 9.39 µM); in test [3], 2 µg/mL (≈ 2.35 µM); in test [4] it was 2 µg/mL (≈ 2.35 µM); in [6], 32 µg/mL (≈ 37.6 µM); in [7] it was 64 µg/mL (≈ 75.1 µM). The MIC in [8] was 128 µg/mL (≈ 150 µM); in test [9], at least 512 µg/mL; in test [14], 64 µg/mL (≈ 75.1 µM).
